Results as given in patent US20240108618A1, “KRAS G12C INHIBITOR DOSING REGIMENS” (Eli Lilly and Company, priority 2022, published 2024).
Marks after values point to notes of the source that are not given here.

Key:
SW837 = SW837 (CRC) xenograft model; assay type: in vivo, mouse
Procedure: (§1) For xenograft models of H1373, HCC44, MiaPaca-2, SW1463, SW837, KYSE-410 and UM-UC-3, typically 5-10×10^6 cells in a 1:1 matrigel mix (0.2 mL total volume) are implanted by subcutaneous injection in hind leg of nude mice. […] Treatment is initiated with oral administration (gavage) of testing compound or vehicle (20% captisol, 25 mM phosphate, pH2.0) in 0.2 mL volume when tumor size reaches approximately 200-300 mg. Tumor growth and body weight are monitored over time to evaluate efficacy and signs of toxicity. For EL3187 PDX model, frozen vials containing tumor fragments are thawed at 37° C. in a water bath. The tumor fragments are transferred to 50 mL Falcon tube and the ice cold DMEM medium is slowly added into the tube to a total volume of 35 mL. Then the tumor fragments are centrifuged at 130×g for 2 minutes at 4° C. and supernatant is aspirated. This washing step is repeated twice and the tumor fragments are resuspended in 10 mL DMEM for implantation into athymic nude-Foxn1nu mice (Envigo RMS, Inc., Mount Comfort, Indiana). Once tumor volumes reach 800 to 1000 mm^3, animals are sacrificed and tumors are harvested using aseptic technique. Fresh tumors are cut into 10 to 15 mm^3 fragments and placed into cold Gibco hibernate medium. The tumor fragments are subcutaneously implanted into animals with a 10 g trochar needle. When tumor size reaches 200 to 300 mm^3, the animals are randomized for compound treatment.
(§2) Among models listed in Table 2, EL3187 is a patient-derived xenograft (PDX) model, and all other are tumor xenograft models.

[1] = From the text: A “DLT” is defined as any of the treatment-emergent adverse event (TEAEs), as defined by the National Cancer Institute's Common Terminology Criteria for Adverse Events, version 5.0 (NCI CTCAE v5.0), deemed clinically significant and occurring during the first 21 days of study drug per dose level per patient, unless the adverse event (AE) can be clearly related to the patient's underlying disease, other medical condition, or concomitant medications including any AEs attributed by the Investigator to the combination agent alone. A TEAE is defined as an AE that starts or worsens on or after the date of the first dose of study drug (for example on Study Day 1) through 28 days (+14 days window) after the date of the last dose of study drug or the first date starting new anticancer therapy, whichever is earlier. A Serious TEAE is defined as an TEAE that is grade 3 or higher based on severity grade assignment as defined by the National Cancer Institute's Common Terminology Criteria for Adverse Events, version 5.0 (NCI CTCAE v5.0). A Fatal TEAE is defined as an TEAE that is grade 5 based on severity grade assignment as defined by the National Cancer Institute's Common Terminology Criteria for Adverse Events, version 5.0 (NCI CTCAE v5.0).
(§3) NCT04956640 includes Phase 1a dose escalation (Part A of NCT04956640, see Table 3) followed by a Phase 1b dose expansion (Parts B to E of NCT04956640, see Table 4). […] Phase 1b dose expansion will include 12 cohorts (See Table 4) to further evaluate safety and clinical activity.

MiaPaca-2 = MiaPaca-2 (pancreas) xenograft model; assay type: in vivo, mouse
Procedure: as §1, §2

KYSE-410 = KYSE-410 (esophagus) xenograft model; assay type: in vivo, mouse
Procedure: as §1, §2

SW1463 = SW1463 (CRC) xenograft model; assay type: in vivo, mouse
Procedure: as §1, §2

UM-UC-3 = UM-UC-3 (bladder) xenograft model; assay type: in vivo, mouse
Procedure: as §1, §2

[2] = NCT04956640 Phase 1a clinical pharmacokinetics, monotherapy
From the text: as §3

C=CC(=O)N1CCN2C(=O)c3cc(F)c(-c4ccc(F)c5sc(N)c(C#N)c45)c(Cl)c3OCC[C@H]2C1 (single isomer, unassigned) [Formula I]
tumor growth inhibition (%) or regression (− %) (SW837; 5 mg/kg BID x28): 83.6%
tumor growth inhibition (%) or regression (− %) (SW837; 5 mg/kg QD x28): 18.2%
tumor growth inhibition (%) or regression (− %) (SW837; 10 mg/kg BID x28): 62.1%
tumor growth inhibition (%) or regression (− %) (SW837; 10 mg/kg QD x28): 95.2%
tumor growth inhibition (%) or regression (− %) (SW837; 30 mg/kg BID x28): −23.8%
tumor growth inhibition (%) or regression (− %) (SW837; 30 mg/kg QD x28): 83.5%
discontinuation due to TRAE ([1]; 50 mg BID): one
rate of immune-related AEs, including hepatoxicity ([1]; 50 mg BID and 100 mg BID): low rate of immune-related AEs
dose reductions ([1]; 50 mg and 100 mg BID): no dose reductions
tumor growth inhibition (%) or regression (− %) (MiaPaca-2; 5 mg/kg BID x28): −36.1%
tumor growth inhibition (%) or regression (− %) (MiaPaca-2; 5 mg/kg QD x28): 81.7%
tumor growth inhibition (%) or regression (− %) (MiaPaca-2; 10 mg/kg BID x28): −45.2%
tumor growth inhibition (%) or regression (− %) (MiaPaca-2; 10 mg/kg QD x28): −27%
tumor growth inhibition (%) or regression (− %) (MiaPaca-2; 30 mg/kg BID x28): −43.6%
tumor growth inhibition (%) or regression (− %) (MiaPaca-2; 30 mg/kg QD x28): −42%
tumor growth inhibition (%) or regression (− %) (KYSE-410; 10 mg/kg BID x28): 51.5%
tumor growth inhibition (%) or regression (− %) (KYSE-410; 10 mg/kg QD x28): 25.3%
tumor growth inhibition (%) or regression (− %) (KYSE-410; 30 mg/kg BID x28): 61.8%
tumor growth inhibition (%) or regression (− %) (KYSE-410; 30 mg/kg QD x28): 66.7%
tumor growth inhibition (%) or regression (− %) (SW1463; 5 mg/kg BID x28): 48.8%
tumor growth inhibition (%) or regression (− %) (SW1463; 5 mg/kg QD x28): 52.5%
tumor growth inhibition (%) or regression (− %) (SW1463; 10 mg/kg BID x28): 79.5%
tumor growth inhibition (%) or regression (− %) (SW1463; 10 mg/kg QD x28): 78.3%
tumor growth inhibition (%) or regression (− %) (SW1463; 30 mg/kg BID x28): 98.8%
tumor growth inhibition (%) or regression (− %) (SW1463; 30 mg/kg QD x28): 89.8%
tumor growth inhibition (%) or regression (− %) (UM-UC-3; 5 mg/kg BID x28): 45.3%
tumor growth inhibition (%) or regression (− %) (UM-UC-3; 5 mg/kg QD x28): 34.3%
tumor growth inhibition (%) or regression (− %) (UM-UC-3; 10 mg/kg BID x28): 75%
tumor growth inhibition (%) or regression (− %) (UM-UC-3; 10 mg/kg QD x28): 33.6%
tumor growth inhibition (%) or regression (− %) (UM-UC-3; 30 mg/kg BID x28): 85%
tumor growth inhibition (%) or regression (− %) (UM-UC-3; 30 mg/kg QD x28): 83.1%
AUC ([2]; 50 mg BID): 634 (53%) ng.h/mL
Cmax ([2]; 50 mg BID): 144 (45%) ng/ml
Ctrough-Cmin ([2]; 50 mg BID): 23.8 (90%)^c ng/mL
t½ ([2]; 50 mg BID): 3.03 (41%)^c h
AUC ([2]; 100 mg BID): 1475 (77%) ng.h/mL
Cmax ([2]; 100 mg BID): 305 (75%) ng/ml
Ctrough-Cmin ([2]; 100 mg BID): 44.9 (73%) ng/mL
Ctrough-Cmin compared with TEC90 ([2]; 100 mg BID): > 25 ng/mL
t½ ([2]; 100 mg BID): 3.01 (33%)^b h
AUC ([2]; 150 mg BID): 1795 (47%) ng.h/mL
Cmax ([2]; 150 mg BID): 368 (51%) ng/ml
Ctrough-Cmin ([2]; 150 mg BID): 54.5 (60%) ng/mL
Ctrough-Cmin compared with TEC90 ([2]; 150 mg BID): > 25 ng/mL
t½ ([2]; 150 mg BID): 3.41 (32%) h
AUC ([2]; 200 mg BID): 1372 (59%) ng.h/mL
Cmax ([2]; 200 mg BID): 325 (61%) ng/ml
Ctrough-Cmin ([2]; 200 mg BID): 40.3 (73%) ng/mL
Ctrough-Cmin compared with TEC90 ([2]; 200 mg BID): > 25 ng/mL
t½ ([2]; 200 mg BID): 2.35 (58%) h
